Assay results published in PubChem BioAssay (NCI).
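Interpolation was linear, between the two tested concentrations surrounding the appropriate level; five concentrations were tested over 48 hours in 96-well plates. TGI denotes the concentration required for complete inhibition of growth.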

Assays:
Experiment in all cases: NCI anticancer screen, dose series, 48 h
786-0 renal = test system: 786-0 renal
A498 renal = test system: A498 renal
A549 NSCLC = test system: A549 NSCLC
ACHN renal = test system: ACHN renal
CAKI-1 renal = test system: CAKI-1 renal
CCRF-CEM leukemia = test system: CCRF-CEM leukemia
COLO 205 colon = test system: COLO 205 colon
DLD-1 colon = test system: DLD-1 colon
DMS 114 small cell lung = test system: DMS 114 small cell lung
DMS 273 small cell lung = test system: DMS 273 small cell lung
EKVX NSCLC = test system: EKVX NSCLC
HCC-2998 colon = test system: HCC-2998 colon
HCT-116 colon = test system: HCT-116 colon
HCT-15 colon = test system: HCT-15 colon
HL-60(TB) leukemia = test system: HL-60(TB) leukemia
HOP-18 NSCLC = test system: HOP-18 NSCLC
HOP-62 NSCLC = test system: HOP-62 NSCLC
HOP-92 NSCLC = test system: HOP-92 NSCLC
HT29 colon = test system: HT29 colon
IGROV1 ovarian = test system: IGROV1 ovarian
K-562 leukemia = test system: K-562 leukemia
KM12 colon = test system: KM12 colon
KM20L2 colon = test system: KM20L2 colon
LOX IMVI melanoma = test system: LOX IMVI melanoma
LXFL 529 NSCLC = test system: LXFL 529 NSCLC
M14 melanoma = test system: M14 melanoma
M19-MEL melanoma = test system: M19-MEL melanoma
MALME-3M melanoma = test system: MALME-3M melanoma
MOLT-4 leukemia = test system: MOLT-4 leukemia
NCI-H226 lung = test system: NCI-H226 lung
NCI-H23 lung = test system: NCI-H23 lung
NCI-H460 lung = test system: NCI-H460 lung
NCI-H522 lung = test system: NCI-H522 lung
OVCAR-3 ovarian = test system: OVCAR-3 ovarian
OVCAR-4 ovarian = test system: OVCAR-4 ovarian
OVCAR-5 ovarian = test system: OVCAR-5 ovarian
OVCAR-8 ovarian = test system: OVCAR-8 ovarian
RPMI-8226 leukemia = test system: RPMI-8226 leukemia
RXF 393 renal = test system: RXF 393 renal
SF-268 CNS = test system: SF-268 CNS
SF-295 CNS = test system: SF-295 CNS
SF-539 CNS = test system: SF-539 CNS
SK-MEL-2 melanoma = test system: SK-MEL-2 melanoma
SK-MEL-28 melanoma = test system: SK-MEL-28 melanoma
SK-MEL-5 melanoma = test system: SK-MEL-5 melanoma
SK-OV-3 ovarian = test system: SK-OV-3 ovarian
SN12C renal = test system: SN12C renal
SNB-19 CNS = test system: SNB-19 CNS
SNB-75 CNS = test system: SNB-75 CNS
SNB-78 CNS = test system: SNB-78 CNS
SR leukemia = test system: SR leukemia
SW-620 colon = test system: SW-620 colon
TK-10 renal = test system: TK-10 renal
U251 CNS = test system: U251 CNS
UACC-257 melanoma = test system: UACC-257 melanoma
UACC-62 melanoma = test system: UACC-62 melanoma
UO-31 renal = test system: UO-31 renal
XF 498 CNS = test system: XF 498 CNS

## O=C1C2c3[nH]c4ccccc4c3C3CCCCCC3C2C(=O)N1c1ccccc1 (configuration not stated)
786-0 renal
  TGI: > 100 µM
A498 renal
  TGI: > 57.1 µM
A549 NSCLC
  TGI: > 67.5 µM
ACHN renal
  TGI: > 91.1 µM
CAKI-1 renal
  TGI: > 100 µM
CCRF-CEM leukemia
  TGI: 23.1 µM
COLO 205 colon
  TGI: > 100 µM
DLD-1 colon
  TGI: > 100 µM
DMS 114 small cell lung
  TGI: > 100 µM
DMS 273 small cell lung
  TGI: > 100 µM
EKVX NSCLC
  TGI: > 100 µM
HCC-2998 colon
  TGI: > 100 µM
HCT-116 colon
  TGI: 62.7 µM
HCT-15 colon
  TGI: > 100 µM
HL-60(TB) leukemia
  TGI: > 70.3 µM
HOP-18 NSCLC
  TGI: > 60.4 µM
HOP-62 NSCLC
  TGI: 41.7 µM
HOP-92 NSCLC
  TGI: 74.7 µM
HT29 colon
  TGI: > 100 µM
IGROV1 ovarian
  TGI: 72 µM
K-562 leukemia
  TGI: > 100 µM
KM12 colon
  TGI: > 100 µM
KM20L2 colon
  TGI: > 100 µM
LOX IMVI melanoma
  TGI: > 49.9 µM
LXFL 529 NSCLC
  TGI: > 100 µM
M14 melanoma
  TGI: > 49.3 µM
M19-MEL melanoma
  TGI: > 100 µM
MALME-3M melanoma
  TGI: 41.1 µM
MOLT-4 leukemia
  TGI: 47.7 µM
NCI-H226 lung
  TGI: > 64.3 µM
NCI-H23 lung
  TGI: > 82.9 µM
NCI-H460 lung
  TGI: > 77.4 µM
NCI-H522 lung
  TGI: > 100 µM
OVCAR-3 ovarian
  TGI: 35.7 µM
OVCAR-4 ovarian
  TGI: > 24.5 µM
OVCAR-5 ovarian
  TGI: > 100 µM
OVCAR-8 ovarian
  TGI: 34 µM
RPMI-8226 leukemia
  TGI: > 100 µM
RXF 393 renal
  TGI: 37.7 µM
SF-268 CNS
  TGI: 99.8 µM
SF-295 CNS
  TGI: > 65.5 µM
SF-539 CNS
  TGI: > 52 µM
SK-MEL-2 melanoma
  TGI: 67.2 µM
SK-MEL-28 melanoma
  TGI: 97.7 µM
SK-MEL-5 melanoma
  TGI: > 100 µM
SK-OV-3 ovarian
  TGI: 34.1 µM
SN12C renal
  TGI: > 36.5 µM
SNB-19 CNS
  TGI: > 74.1 µM
SNB-75 CNS
  TGI: 8.41 µM
SNB-78 CNS
  TGI: 70.7 µM
SR leukemia
  TGI: > 53.9 µM
SW-620 colon
  TGI: > 100 µM
TK-10 renal
  TGI: > 100 µM
U251 CNS
  TGI: > 45.6 µM
UACC-257 melanoma
  TGI: 84.6 µM
UACC-62 melanoma
  TGI: > 100 µM
UO-31 renal
  TGI: 99.4 µM
XF 498 CNS
  TGI: 47.4 µM

## CC/C(=N/O)c1ccc2[nH]c3c(C)cc([N+](=O)[O-])c(C)c3c2c1
786-0 renal
  TGI: > 100 µM
A549 NSCLC
  TGI: > 100 µM
ACHN renal
  TGI: > 100 µM
CAKI-1 renal
  TGI: > 100 µM
CCRF-CEM leukemia
  TGI: > 100 µM
COLO 205 colon
  TGI: > 100 µM
DLD-1 colon
  TGI: > 100 µM
DMS 114 small cell lung
  TGI: > 100 µM
DMS 273 small cell lung
  TGI: 60.8 µM
EKVX NSCLC
  TGI: > 100 µM
HCC-2998 colon
  TGI: > 100 µM
HCT-116 colon
  TGI: > 100 µM
HCT-15 colon
  TGI: > 100 µM
HL-60(TB) leukemia
  TGI: > 100 µM
HOP-18 NSCLC
  TGI: > 100 µM
HOP-62 NSCLC
  TGI: > 100 µM
HT29 colon
  TGI: > 100 µM
K-562 leukemia
  TGI: > 100 µM
KM12 colon
  TGI: > 100 µM
LOX IMVI melanoma
  TGI: > 100 µM
M14 melanoma
  TGI: > 100 µM
M19-MEL melanoma
  TGI: > 100 µM
MALME-3M melanoma
  TGI: > 100 µM
MOLT-4 leukemia
  TGI: > 100 µM
NCI-H226 lung
  TGI: > 100 µM
NCI-H23 lung
  TGI: > 100 µM
NCI-H460 lung
  TGI: > 100 µM
NCI-H522 lung
  TGI: > 100 µM
OVCAR-3 ovarian
  TGI: > 100 µM
OVCAR-4 ovarian
  TGI: > 100 µM
OVCAR-5 ovarian
  TGI: > 100 µM
OVCAR-8 ovarian
  TGI: > 100 µM
RPMI-8226 leukemia
  TGI: > 100 µM
SF-268 CNS
  TGI: > 100 µM
SF-295 CNS
  TGI: > 100 µM
SF-539 CNS
  TGI: > 100 µM
SK-MEL-2 melanoma
  TGI: > 100 µM
SK-MEL-28 melanoma
  TGI: > 100 µM
SK-MEL-5 melanoma
  TGI: > 100 µM
SN12C renal
  TGI: > 100 µM
SNB-19 CNS
  TGI: > 100 µM
SNB-75 CNS
  TGI: > 100 µM
SNB-78 CNS
  TGI: > 100 µM
SR leukemia
  TGI: > 100 µM
SW-620 colon
  TGI: > 100 µM
TK-10 renal
  TGI: > 100 µM
UACC-257 melanoma
  TGI: > 100 µM
UO-31 renal
  TGI: > 100 µM
XF 498 CNS
  TGI: > 100 µM
